Laboratory results: doi:10.1101/2023.11.24.568596v1 (biorxiv, 2023)

How the values were obtained:
Conditions in all cases: binder
DCAMKL1 = target: T1, DCAMKL1 (Homo sapiens, UniProt O15075)
T1 sequence (O15075 1-740): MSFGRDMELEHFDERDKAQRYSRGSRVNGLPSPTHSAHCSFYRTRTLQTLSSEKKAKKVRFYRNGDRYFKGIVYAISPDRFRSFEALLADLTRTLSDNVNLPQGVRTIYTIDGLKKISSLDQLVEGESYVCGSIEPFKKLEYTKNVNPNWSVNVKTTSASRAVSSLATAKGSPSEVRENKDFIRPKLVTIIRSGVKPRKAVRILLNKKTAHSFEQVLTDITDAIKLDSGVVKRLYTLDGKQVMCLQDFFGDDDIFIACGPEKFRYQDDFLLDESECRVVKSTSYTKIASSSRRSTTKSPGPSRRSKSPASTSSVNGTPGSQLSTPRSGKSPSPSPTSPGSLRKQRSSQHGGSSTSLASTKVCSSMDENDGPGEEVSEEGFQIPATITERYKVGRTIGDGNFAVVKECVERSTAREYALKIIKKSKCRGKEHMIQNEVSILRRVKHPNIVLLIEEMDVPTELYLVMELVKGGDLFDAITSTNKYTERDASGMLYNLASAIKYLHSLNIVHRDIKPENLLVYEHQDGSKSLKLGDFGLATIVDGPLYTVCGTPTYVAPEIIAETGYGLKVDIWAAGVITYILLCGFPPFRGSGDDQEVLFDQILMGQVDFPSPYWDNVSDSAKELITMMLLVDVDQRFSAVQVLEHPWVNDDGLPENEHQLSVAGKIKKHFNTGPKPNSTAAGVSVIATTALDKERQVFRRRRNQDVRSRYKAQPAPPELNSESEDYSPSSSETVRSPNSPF

EphB1 = target: T2, EphB1 (Homo sapiens, UniProt P54762)
T2 sequence (P54762 1-984): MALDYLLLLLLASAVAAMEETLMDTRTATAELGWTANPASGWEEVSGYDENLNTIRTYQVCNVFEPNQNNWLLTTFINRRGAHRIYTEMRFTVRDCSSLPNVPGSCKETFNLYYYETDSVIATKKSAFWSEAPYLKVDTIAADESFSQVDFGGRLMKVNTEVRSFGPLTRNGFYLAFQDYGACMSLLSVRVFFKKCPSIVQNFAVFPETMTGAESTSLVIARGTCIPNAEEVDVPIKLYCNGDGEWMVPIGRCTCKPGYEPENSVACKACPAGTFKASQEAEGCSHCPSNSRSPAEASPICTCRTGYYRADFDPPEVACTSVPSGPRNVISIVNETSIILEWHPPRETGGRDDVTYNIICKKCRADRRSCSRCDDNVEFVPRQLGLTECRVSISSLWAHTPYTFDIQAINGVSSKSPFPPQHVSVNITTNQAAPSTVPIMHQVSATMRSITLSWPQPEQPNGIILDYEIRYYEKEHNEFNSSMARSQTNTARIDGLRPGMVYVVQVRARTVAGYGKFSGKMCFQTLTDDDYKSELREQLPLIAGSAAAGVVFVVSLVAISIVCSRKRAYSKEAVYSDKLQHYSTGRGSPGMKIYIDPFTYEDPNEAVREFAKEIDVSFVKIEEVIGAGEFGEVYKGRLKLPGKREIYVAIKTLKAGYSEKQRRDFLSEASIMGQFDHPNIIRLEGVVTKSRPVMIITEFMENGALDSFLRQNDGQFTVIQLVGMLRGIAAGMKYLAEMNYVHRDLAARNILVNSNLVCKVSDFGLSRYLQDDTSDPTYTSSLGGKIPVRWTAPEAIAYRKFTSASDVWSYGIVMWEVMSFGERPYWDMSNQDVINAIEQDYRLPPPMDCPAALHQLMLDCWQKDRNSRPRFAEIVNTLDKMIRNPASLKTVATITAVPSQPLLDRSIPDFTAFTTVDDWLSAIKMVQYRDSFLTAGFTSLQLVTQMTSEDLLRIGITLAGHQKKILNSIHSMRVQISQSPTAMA

Erk7 = target: T3, Erk7 (Homo sapiens, UniProt Q8TD08)
T3 sequence (Q8TD08 1-544): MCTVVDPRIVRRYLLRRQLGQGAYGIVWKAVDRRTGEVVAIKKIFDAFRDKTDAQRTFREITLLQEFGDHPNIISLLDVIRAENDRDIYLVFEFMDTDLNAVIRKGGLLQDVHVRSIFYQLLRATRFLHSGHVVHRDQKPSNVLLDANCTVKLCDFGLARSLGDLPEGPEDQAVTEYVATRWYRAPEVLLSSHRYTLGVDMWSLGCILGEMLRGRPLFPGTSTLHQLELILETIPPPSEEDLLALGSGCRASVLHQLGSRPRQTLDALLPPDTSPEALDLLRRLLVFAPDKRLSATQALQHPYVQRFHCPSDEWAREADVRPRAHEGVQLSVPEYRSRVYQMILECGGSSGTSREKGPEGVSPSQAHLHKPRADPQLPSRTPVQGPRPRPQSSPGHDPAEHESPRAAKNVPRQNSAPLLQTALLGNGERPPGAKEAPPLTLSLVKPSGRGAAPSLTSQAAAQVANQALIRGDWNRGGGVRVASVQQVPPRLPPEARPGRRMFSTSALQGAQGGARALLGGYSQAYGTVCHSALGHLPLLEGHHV

MELK = MELK (Homo sapiens, UniProt Q14680)
Chain of MELK (Q14680 whole entry): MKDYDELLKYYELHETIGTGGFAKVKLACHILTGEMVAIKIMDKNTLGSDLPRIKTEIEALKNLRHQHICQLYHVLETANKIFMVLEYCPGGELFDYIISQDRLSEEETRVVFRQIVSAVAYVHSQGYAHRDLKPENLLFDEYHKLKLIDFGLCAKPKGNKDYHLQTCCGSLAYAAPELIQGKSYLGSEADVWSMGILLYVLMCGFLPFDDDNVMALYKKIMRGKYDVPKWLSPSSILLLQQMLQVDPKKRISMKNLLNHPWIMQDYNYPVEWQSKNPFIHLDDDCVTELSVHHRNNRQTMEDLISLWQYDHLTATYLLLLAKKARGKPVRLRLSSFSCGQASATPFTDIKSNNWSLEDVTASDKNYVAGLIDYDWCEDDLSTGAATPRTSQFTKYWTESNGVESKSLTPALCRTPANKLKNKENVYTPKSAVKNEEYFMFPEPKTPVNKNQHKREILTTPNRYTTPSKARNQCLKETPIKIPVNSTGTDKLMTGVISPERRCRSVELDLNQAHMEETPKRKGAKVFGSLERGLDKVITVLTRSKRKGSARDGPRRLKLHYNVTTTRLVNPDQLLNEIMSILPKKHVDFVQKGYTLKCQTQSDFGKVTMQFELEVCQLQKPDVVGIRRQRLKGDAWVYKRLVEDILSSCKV

PCTAIRE1 = PCTAIRE1 (Homo sapiens, UniProt Q00536)
Chain of PCTAIRE1 (Q00536 whole entry): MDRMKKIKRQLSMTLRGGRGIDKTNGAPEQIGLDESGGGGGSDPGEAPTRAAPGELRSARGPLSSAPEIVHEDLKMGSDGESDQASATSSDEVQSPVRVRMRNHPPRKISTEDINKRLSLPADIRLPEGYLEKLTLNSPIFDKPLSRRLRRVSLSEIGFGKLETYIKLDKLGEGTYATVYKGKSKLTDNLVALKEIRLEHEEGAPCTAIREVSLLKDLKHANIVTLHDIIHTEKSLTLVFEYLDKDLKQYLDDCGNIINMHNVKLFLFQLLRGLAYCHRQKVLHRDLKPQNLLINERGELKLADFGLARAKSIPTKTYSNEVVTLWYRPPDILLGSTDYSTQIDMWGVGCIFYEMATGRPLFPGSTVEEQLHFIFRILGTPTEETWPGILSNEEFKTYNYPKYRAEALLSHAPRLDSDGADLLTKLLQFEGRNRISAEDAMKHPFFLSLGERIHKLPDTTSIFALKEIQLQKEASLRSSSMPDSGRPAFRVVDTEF

Cc1cccc(-c2ccc(-c3cc4cnc(NCCCN5CCCC5=O)nc4n(CCCCN)c3=O)c(Cl)c2)n1 [compound 27, MR30]
ΔTm MR30 (27) (DCAMKL1): -1.8 °C | ΔTm MR30 (27) (EphB1): 3.0 °C | ΔTm MR30 (27) (Erk7): -0.4 °C | ΔTm MR30 (27) (MELK): 5.8 °C | ΔTm MR30 (27) (PCTAIRE1): 2.9 °C

Cc1cccc(-c2ccc(-c3cc4cnc(Nc5cc(C(F)(F)F)ccc5C)nc4n(CCCCN)c3=O)c(Cl)c2)n1 [compound 28, 8-(4-Aminobutyl)-6-(2-chloro-4-(6-methylpyridin-2-yl)phenyl)-2-((2-methyl-5-(trifluoromethyl)phenyl)amino)pyrido[2,3-d]pyrimidin-7(8H)-one]
ΔTm 28 (DCAMKL1): 0.9 °C | ΔTm 28 (EphB1): 5.1 °C | ΔTm 28 (Erk7): 0.5 °C | ΔTm 28 (MELK): 1.8 °C | ΔTm 28 (PCTAIRE1): 1.1 °C

Cc1cccc(-c2ccc(-c3cc4cnc(NCCCN5CCNCC5)nc4n(CCCCN)c3=O)c(Cl)c2)n1 [compound 29, 8-(4-Aminobutyl)-6-(2-chloro-4-(6-methylpyridin-2-yl)phenyl)-2-((3-(piperazin-1-yl)propyl)amino)pyrido[2,3-d]pyrimidin-7(8H)-one]
ΔTm 29 (DCAMKL1): -1.7 °C | ΔTm 29 (EphB1): 4.3 °C | ΔTm 29 (Erk7): 0.1 °C | ΔTm 29 (MELK): 6.5 °C | ΔTm 29 (PCTAIRE1): 2.5 °C

Cc1cccc(-c2ccc(-c3cc4cnc(Nc5ccc(CCCO)cc5)nc4n(CCCCN)c3=O)c(Cl)c2)n1 [compound 30, 8-(4-Aminobutyl)-6-(2-chloro-4-(6-methylpyridin-2-yl)phenyl)-2-((4-(3-hydroxypropyl)phenyl)amino)pyrido[2,3-d]pyrimidin-7(8H)-one]
ΔTm 30 (DCAMKL1): 2.0 °C | ΔTm 30 (EphB1): 6.5 °C | ΔTm 30 (Erk7): 1.2 °C | ΔTm 30 (MELK): 7.8 °C | ΔTm 30 (PCTAIRE1): 5.0 °C

Cc1cccc(-c2ccc(-c3cc4cnc(Nc5ccc(O)cc5)nc4n(CCCCN)c3=O)c(Cl)c2)n1 [compound 31, 8-(4-Aminobutyl)-6-(2-chloro-4-(6-methylpyridin-2-yl)phenyl)-2-((4-hydroxyphenyl)amino) pyrido[2,3-d]pyrimidin-7(8H)-one]
ΔTm 31 (DCAMKL1): 1.1 °C | ΔTm 31 (EphB1): 6.6 °C | ΔTm 31 (Erk7): 1.4 °C | ΔTm 31 (MELK): 6.5 °C | ΔTm 31 (PCTAIRE1): 5.0 °C

Cc1cccc(-c2ccc(-c3cc4cnc(Nc5ccc(C)c(O)c5)nc4n(CCCCN)c3=O)c(Cl)c2)n1 [compound 32, 8-(4-Aminobutyl)-6-(2-chloro-4-(6-methylpyridin-2-yl)phenyl)-2-((3-hydroxy-4-methylphenyl)amino)pyrido[2,3-d]pyrimidin-7(8H)-one]
ΔTm 32 (DCAMKL1): 1.4 °C | ΔTm 32 (EphB1): 6.6 °C | ΔTm 32 (Erk7): 1.0 °C | ΔTm 32 (MELK): 7.2 °C | ΔTm 32 (PCTAIRE1): 4.8 °C
